# Measurements as given in ChEMBL document CHEMBL1142965, “(Aryloxyacetylamino)benzoic acid analogues: A new class of hypoxia-inducible factor-1 inhibitors” (J Med Chem, 2007).
# Activity calls are given as the source filed them. The rule behind the calls is not given here.
# Legend:
# [1] = target: Hypoxia inducible factors; HIF-1-alpha, HIF-2-alpha (Homo sapiens, UniProt Q16665+Q99814); experiment: Inhibition of hypoxia induced HIF1 transcriptional activity in human Hep3B cells by cell-based HRE reporter assay; format: functional; conditions: hep 3b2
# AGS = experiment: cells; conditions: Homo sapiens
# Description: Inhibition of hypoxia induced HIF1 transcriptional activity in human AGS cells by cell-based HRE reporter assay
# [2] = Suppression of hypoxia-induced EPO mRNA expression in human Hep3B cells; format: functional, cell-based; conditions: Hep 3B2
# [3] = Suppression of hypoxia-induced HIF1-alpha mRNA expression in human Hep3B cells; format: functional, cell-based; conditions: Hep 3B2
# [4] = target: Hypoxia-inducible factor 1-alpha (Homo sapiens) (UniProt Q16665); experiment: Inhibition of hypoxia-induced HIF1-alpha accumulation in human Hep3B cells; format: functional, cell-based; conditions: Hep 3B2
# [5] = Suppression of hypoxia-induced VEGF mRNA expression in human Hep3B cells; format: functional, cell-based; conditions: Hep 3B2
# [6] = Suppression of hypoxia-induced EPO mRNA expression in human Hep3B cells at 10 uM; format: functional, cell-based; conditions: Hep 3B2
# [7] = Suppression of hypoxia-induced VEGF mRNA expression in human Hep3B cells at 10 uM; format: functional, cell-based; conditions: Hep 3B2
# Chain of Hypoxia-inducible factor 1-alpha (Homo sapiens) (Q16665 whole entry, looked up): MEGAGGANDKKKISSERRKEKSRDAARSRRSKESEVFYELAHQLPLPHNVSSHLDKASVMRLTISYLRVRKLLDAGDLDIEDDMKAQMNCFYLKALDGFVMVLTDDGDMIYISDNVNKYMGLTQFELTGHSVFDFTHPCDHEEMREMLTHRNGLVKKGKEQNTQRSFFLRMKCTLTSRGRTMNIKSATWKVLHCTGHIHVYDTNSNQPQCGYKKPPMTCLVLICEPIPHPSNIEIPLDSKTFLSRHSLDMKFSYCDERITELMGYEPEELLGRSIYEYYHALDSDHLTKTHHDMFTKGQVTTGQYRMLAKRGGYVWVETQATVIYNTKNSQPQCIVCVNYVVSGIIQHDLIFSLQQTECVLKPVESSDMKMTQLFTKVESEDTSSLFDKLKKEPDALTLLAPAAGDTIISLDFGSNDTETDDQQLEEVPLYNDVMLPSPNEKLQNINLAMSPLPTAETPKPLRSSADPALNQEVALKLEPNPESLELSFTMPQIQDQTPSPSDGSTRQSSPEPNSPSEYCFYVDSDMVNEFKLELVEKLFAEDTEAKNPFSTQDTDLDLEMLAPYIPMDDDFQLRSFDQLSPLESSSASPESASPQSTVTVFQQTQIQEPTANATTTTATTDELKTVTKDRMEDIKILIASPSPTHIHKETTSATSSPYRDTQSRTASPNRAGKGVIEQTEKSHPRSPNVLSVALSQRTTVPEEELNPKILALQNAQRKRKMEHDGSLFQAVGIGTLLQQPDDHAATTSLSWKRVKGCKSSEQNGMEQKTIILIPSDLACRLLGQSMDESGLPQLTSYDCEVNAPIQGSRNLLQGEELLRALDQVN
IC50 [1] [µM],IC50 (AGS) [µM],SMILES,also measured
> 30,> 30,CC(=O)c1ccc(OCC(=O)Nc2cccc(C(=O)O)c2)cc1,–
9.9,7.4,COC(=O)c1cccc(NC(=O)COc2ccc(C34CC5CC(CC(C5)C3)C4)cc2)c1,–
7.2,3.5,O=C(COc1ccc(I)cc1)Nc1cccc(C(=O)O)c1,–
> 30,1.6,O=C(COc1ccc(Br)cc1)Nc1cccc(C(=O)O)c1,–
5,2.5,O=C(COc1ccc(C23CC4CC(CC(C4)C2)C3)cc1)Nc1cccc(C(=O)O)c1,Activity [2]: Dose-dependent effect; Activity [3]: inactive; Activity [4]: Dose-dependent effect; Activity [5]: Dose-dependent effect
> 30,1.5,NC(=O)c1ccc(O)c(NC(=O)COc2ccc(C34CC5CC(CC(C5)C3)C4)cc2)c1,–
29,9.5,CC(C)(C)c1ccc(OCC(=O)Nc2cccc(C(=O)O)c2)cc1,–
10.5,–,O=C(COc1ccc(C23CC4CC(CC(C4)C2)C3)cc1)Nc1ccccc1C(=O)O,–
> 30,–,O=C(COc1ccc(C23CC4CC(CC(C4)C2)C3)cc1)Nc1ccc(C(=O)O)cc1,–
> 30,10,O=C(COc1ccc(Cl)cc1)Nc1cccc(C(=O)O)c1,–
> 30,> 30,CC(C)(C)c1ccc(OCC(=O)Nc2cccc(C(N)=O)c2)cc1,–
> 30,> 30,NC(=O)c1cccc(NC(=O)COc2ccc([N+](=O)[O-])cc2)c1,–
2.6,0.7,COC(=O)c1ccc(O)c(NC(=O)COc2ccc(C34CC5CC(CC(C5)C3)C4)cc2)c1,Activity [2]: Dose-dependent effect; Activity [6]: Active; Activity [7]: Active; Activity [3]: inactive; Activity [4]: Dose-dependent effect; Activity [5]: Dose-dependent effect
> 30,> 30,O=C(COc1ccc(-c2cccc([N+](=O)[O-])c2)cc1)Nc1cccc(C(=O)O)c1,–
12.6,5.9,O=C(COc1ccc(C23CC4CC(CC(C4)C2)C3)cc1)Nc1cc(C(=O)NCc2ccco2)ccc1O,–
> 30,> 30,O=C(COc1ccccc1)Nc1cccc(C(=O)O)c1,–

IC50 [1] [µM],IC50 (AGS) [µM],SMILES,also measured
> 30,3,CN(C)CCNC(=O)c1ccc(O)c(NC(=O)COc2ccc(C34CC5CC(CC(C5)C3)C4)cc2)c1,–
0.4,0.35,O=C(COc1ccc(C23CC4CC(CC(C4)C2)C3)cc1)Nc1cc(C(=O)O)ccc1O,Activity [4]: Dose-dependent effect
> 30,> 30,O=C(COc1ccc(-c2cccs2)cc1)Nc1cccc(C(=O)O)c1,–
> 30,35,COc1cccc(-c2ccc(OCC(=O)Nc3cccc(C(=O)O)c3)cc2)c1,–
23.2,> 30,Cc1ccc(-c2ccc(OCC(=O)Nc3cccc(C(=O)O)c3)cc2)cc1,–
> 30,> 30,O=C(COc1ccc(C23CC4CC(CC(C4)C2)C3)cc1)Nc1cccc(C(=O)Nc2ccc3ccccc3c2)c1,–
> 30,> 30,Cc1ccc(OCC(=O)Nc2cccc(C(N)=O)c2)cc1,–
–,2,OCc1ccc(-c2nn(Cc3ccccc3)c3ccccc23)o1,–
> 30,9.5,O=C(COc1ccc(C23CC4CC(CC(C4)C2)C3)cc1)Nc1cccc(C(=O)Nc2ccc(Cl)cc2)c1,–
> 30,> 30,O=C(COc1ccc(F)cc1)Nc1cccc(C(=O)O)c1,–
> 30,> 30,Cc1ccc(OCC(=O)Nc2cccc(C(=O)O)c2)cc1,–
> 30,> 30,NC(=O)c1cccc(NC(=O)COc2ccccc2)c1,–
14.08,2.1,O=C(COc1ccc(C23CC4CC(CC(C4)C2)C3)cc1)Nc1cccc(C(=O)NCc2ccco2)c1,–
8.2,3.1,O=C(COc1ccc(C23CC4CC(CC(C4)C2)C3)cc1)Nc1cccc(C(=O)NCCc2ccncc2)c1,–
4.3,1,NC(=O)c1cccc(NC(=O)COc2ccc(C34CC5CC(CC(C5)C3)C4)cc2)c1,Activity [4]: Dose-dependent effect
> 30,> 30,CN(C)C(=O)c1ccc(O)c(NC(=O)COc2ccc(C34CC5CC(CC(C5)C3)C4)cc2)c1,–
